Assay results reported in patent US20050153992A1, “Pyrrolopyrimidine thion derivatives” (TEIJIN PHARMA LIMITED, priority 2003, published 2005).

Target: recombinant human GSK-3β (Homo sapiens, UniProt P49841)
Assay: Determination of Inhibition of GSK-3 Activity (phospho-glycogen synthase peptide-2, [γ-33P]ATP, scintillation counting)
Format: biochemical
Details: 20 μM ATP, 20 minutes at room temperature; read-out: GSK-3 inhibitor activity values (IC50 values)
Description: Determination of Inhibition of GSK-3 Activity
The reaction was initiated by adding 25 μL of phospho-glycogen synthase peptide-2 substrate solution [containing 6 μM phospho-glycogen synthase peptide-2, 20 μM ATP, 16 mM MOPS buffer (pH 7.0), 0.2 mM EDTA, 20 mM magnesium acetate, 0.1 μ Ci[γ-^33P]ATP (relative activity: approximately 110 TBq/mmol)] to 5 μL of each test compound using 5% dimethylsulfoxide as a solvent, and further adding 20 μL of GSK-3β enzyme solution [containing 10 mU recombinant human GSK-3β, 20 mM MOPS buffer (pH 7.0), 1 mM EDTA, 0.1% polyoxyethylene lauryl ether (23 Lauryl Ether; Brij 35), 5% glycerol, and 0.1% β-mercaptoethanol. After 20 minutes at room temperature, the reaction was terminated by the addition of the equivalent amount of 200 mM phosphoric acid solution. 90 μL of the reaction product was spotted onto a multiscreen PH plate (manufactured by Millipore) and washed with 100 mM phosphoric acid solution. The plate was dried, and 30 μL of MicroScint-O (manufactured by Packard BioScience) was added thereto. To evaluate inhibitory activity, cpm was counted using a scintillation counter. Here, Phospho GS Peptide 2 is an amino acid peptide having the following sequence: […]P)-Glu-Asp-Glu- Glu-Glu.
GSK-3 inhibitor activity values (IC50 values) of the compounds according to the present invention were measured by the method described above. As a result, inhibition activity of IC50<100 nM was confirmed in compounds of compound numbers 1, 35, 36, 37, 123, 157, 158, 160, 193, 234, and 263.

Chain of recombinant human GSK-3β (P49841 whole entry): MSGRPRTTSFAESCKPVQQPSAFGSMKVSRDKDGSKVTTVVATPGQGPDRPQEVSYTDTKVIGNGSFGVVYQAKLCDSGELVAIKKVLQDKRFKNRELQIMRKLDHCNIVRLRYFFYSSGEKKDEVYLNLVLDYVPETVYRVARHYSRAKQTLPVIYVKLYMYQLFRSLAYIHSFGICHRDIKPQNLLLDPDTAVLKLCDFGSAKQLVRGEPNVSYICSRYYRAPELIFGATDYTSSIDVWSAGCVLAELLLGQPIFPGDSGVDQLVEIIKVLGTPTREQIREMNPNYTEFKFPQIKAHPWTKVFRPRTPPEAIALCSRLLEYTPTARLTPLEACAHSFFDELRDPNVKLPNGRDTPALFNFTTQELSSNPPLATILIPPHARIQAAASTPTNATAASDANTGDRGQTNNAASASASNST

Compound	IC50 [nM]
O=C(NCCn1c(-c2sccc2Cl)c(I)c2nc[nH]c(=S)c21)c1ccc(F)cc1 [Compound 1, N-{2-[6-(3-chloro(2-thienyl))-7-iodo-4-thioxo(3-hydropyrrolo[3,2-d]pyrimidin-5-yl)]ethyl}(4-fluorophenyl)carboxyamide]	< 100
S=c1[nH]cnc2c(I)c(-c3sccc3Cl)n(CCNc3ncnc4ccccc34)c12 [Compound 37, 6-(3-chloro(2-thienyl))-7-iodo-5-[2-(quinazolin-4-ylamino)ethyl]-3-hydropyrrolo[3,2-d]pyrimidin-4-thione]	< 100
O=C(NCCn1c(-c2sccc2Cl)c(-c2cccnc2)c2nc[nH]c(=S)c21)C(F)(F)F [Compound 123]	< 100
O=C(NCCn1c(-c2sccc2Cl)c(Cl)c2nc[nH]c(=S)c21)c1ccc(F)cc1 [Compound 157]	< 100
O=C(NCCn1c(-c2sccc2Cl)c(Br)c2nc[nH]c(=S)c21)c1ccc(F)cc1 [Compound 158]	< 100
Nc1c(-c2sccc2Cl)n(CCNC(=O)c2ccc(F)cc2)c2c(=S)[nH]cnc12 [Compound 160, N-{2-[7-amino-6-(3-chloro(2-thienyl))-4-thioxo(3-hydropyrrolo[3,2-d]pyrimidin-5-yl)]ethyl}(4-fluorophenyl)carboxyamide]	< 100
O=C(NCCn1c(-c2sccc2Cl)c(NC(=O)c2ccccc2)c2nc[nH]c(=S)c21)c1ccc(F)cc1 [Compound 193, N-{2-[6-(3-chloro(2-thienyl))-7-(phenylcarbonylamino)-4-thioxo(3-hydropyrrolo[3,2-d]pyrimidin-5-yl)]ethyl}(4-fluorophenyl)carboxyamide]	< 100
CCn1nc(C)cc1C(=O)NCCn1c(-c2sccc2Cl)c(I)c2nc[nH]c(=S)c21 [Compound 234, N-{2-[6-(3-chloro(2-thienyl))-7-iodo-4-thioxo(3-hydropyrrolo[3,2-d]pyrimidin-5-yl)]ethyl}(1-ethyl-3-methylpyrazol-5-yl)carboxyamide]	< 100
